Values quoted from earlier work, collected in patent publication US10668050B2, “Compositions, methods and kits for treating diarrhea-predominant irritable bowel syndrome” (RedHill Biopharma Ltd., priority 2014, dated 2020).
Structures can show the parent of a compound that is named as a salt.

How the values were obtained:
[1] = scale of Pliska et al., J. Chromatog. 216, 79, 1981

hydropathy value (relative hydrophobic character) [1] | solubility | SMILES
−2.15 | – | N[C@@H](CC(=O)O)C(=O)O [aspartic acid]
– | soluble in water and normal saline | Cc1nccn1CC1CCc2c(c3ccccc3n2C)C1=O (racemic) [Ondansetron HCl dihydrate, Ondansetron hydrochloride]
0 | – | NCC(=O)O [glycine]
1.83 | – | CC[C@H](C)[C@H](N)C(=O)O [iso-leucine]
